Assay results published in paper PMC6008489 (Bioorganic & Medicinal Chemistry, 2018).

Legend:
Erk1 = molecular target: T1, Erk1 (Homo sapiens, UniProt P27361); assay: 26-kinase panel mobility shift assay, single concentration; format: biochemical; conditions: read-out: % Inhibition Erk1
T1 construct: purchased Perkin Elmer (ProfilerPro assay kit 1)
Protocol: (§1) A mobility shift assay to determine kinase inhibition was carried out using a
(§2) modified version of the ProfilerPro assay kit 1 (Perkin Elmer, Coventry, UK)
(§3) including MPS1 and Aurora B. Each kit contained an enzyme plate, a substrate
(§4) plate, reconstitution buffer, 1 M DTT, protease inhibitor cocktail and termination
(§5) buffer. Test compounds were added as a solution in DMSO.
(§6) peptide phosphorylation assay was carried out as per the manufacturer’s
(§7) instructions. The electrophoretic separation and analysis of the phosphorylated
(§8) and non-phosphorylated peptides was carried out on a 4-sipper chip using a
(§9) LabChip EZReader II (Perkin Elmer). Results were expressed as % inhibition of
(§10) peptide phosphorylation relative to control wells for 0 % (no test compound) and
(§11) 100 % (no ATP) inhibition. The percentage inhibition was calculated using the
(§12) % Inhibition = [1 - (% Conversion Sample / % Conversion 0% Inhibition Control)] x 100

AurB = AurB (Homo sapiens, UniProt Q96GD4); assay: as above; format: biochemical; conditions: read-out: % Inhibition AurB
Protocol: Mobility Shift Assay Protocol
(§13) Screening of 26 kinases using a mobility shift assay
as §1, §2, §3, §4, §5, §6, §7, §8, §9, §10, §11, §12

MPS1 [1] = molecular target: T2, MPS1 (Homo sapiens, UniProt P33981); format: biochemical
T2 sequence (P33981 1-857): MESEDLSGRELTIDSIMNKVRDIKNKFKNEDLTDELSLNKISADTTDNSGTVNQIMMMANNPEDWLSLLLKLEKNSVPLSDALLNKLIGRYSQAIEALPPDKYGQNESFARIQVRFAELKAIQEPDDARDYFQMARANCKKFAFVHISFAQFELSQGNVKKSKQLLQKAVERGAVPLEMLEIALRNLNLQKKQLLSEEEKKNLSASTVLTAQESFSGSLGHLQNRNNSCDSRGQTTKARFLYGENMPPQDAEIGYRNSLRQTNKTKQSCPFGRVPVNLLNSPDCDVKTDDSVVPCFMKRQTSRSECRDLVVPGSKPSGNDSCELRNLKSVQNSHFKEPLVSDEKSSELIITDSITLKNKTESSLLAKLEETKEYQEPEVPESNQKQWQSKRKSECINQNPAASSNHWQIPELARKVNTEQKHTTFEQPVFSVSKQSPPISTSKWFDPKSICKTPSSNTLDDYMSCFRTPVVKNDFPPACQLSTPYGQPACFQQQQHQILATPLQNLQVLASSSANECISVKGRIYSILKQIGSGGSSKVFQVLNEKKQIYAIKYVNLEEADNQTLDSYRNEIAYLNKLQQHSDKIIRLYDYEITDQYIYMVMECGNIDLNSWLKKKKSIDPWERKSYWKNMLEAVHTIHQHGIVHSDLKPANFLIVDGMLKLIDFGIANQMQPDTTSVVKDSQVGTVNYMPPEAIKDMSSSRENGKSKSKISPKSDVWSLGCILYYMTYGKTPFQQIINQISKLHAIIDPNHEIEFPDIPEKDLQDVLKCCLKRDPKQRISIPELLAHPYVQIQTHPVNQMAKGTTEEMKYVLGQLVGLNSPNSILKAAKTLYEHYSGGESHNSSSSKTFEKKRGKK
Protocol: (§14) IC50 values were obtained for an expanded version of the fragment library using the previously described mobility shift assay.[44] Subsequently, Ki values were estimated from IC50 values to allow better comparison of the activity against targets which were measured at different substrate concentrations (Supplementary data Table 1).
(§15) IC50 values for MPS1, Aurora A and Aurora B inhibition were determined as previously described,[44] and Ki values were estimated from the mean IC50 values using the Cheng-Prusoff equation.[48]
(§16) Kinase [ATP] (M) [Enzyme] (nM) [Peptide Substrate] (M) MgCl2 (mM)
(§17) For all compounds, IC50 values for MPS1, Aurora A, and Aurora B were determined
(§18) using MPS1 and Aurora A/B mobility shift assays as described previously.1 IC50
(§19) values were calculated from a four-parameter logistic fit of percentage inhibition
(§20) versus concentration (at 8 compound concentrations) using GraphPad Prism 5
(§21) (GraphPad Software, Inc., CA, USA). Mean IC50 values were determined from two
(§22) independent measurements each carried out in duplicate. Ki values were estimated
(§23) from the mean IC50 values using the Cheng-Prusoff equation.

CHK2 = molecular target: T3, CHK2 (Homo sapiens, UniProt O96017); assay: 26-kinase panel mobility shift assay, single concentration; format: biochemical; conditions: read-out: % Inhibition CHK2
T3 construct: purchased Perkin Elmer (ProfilerPro assay kit 1)
T3 sequence (O96017 whole entry): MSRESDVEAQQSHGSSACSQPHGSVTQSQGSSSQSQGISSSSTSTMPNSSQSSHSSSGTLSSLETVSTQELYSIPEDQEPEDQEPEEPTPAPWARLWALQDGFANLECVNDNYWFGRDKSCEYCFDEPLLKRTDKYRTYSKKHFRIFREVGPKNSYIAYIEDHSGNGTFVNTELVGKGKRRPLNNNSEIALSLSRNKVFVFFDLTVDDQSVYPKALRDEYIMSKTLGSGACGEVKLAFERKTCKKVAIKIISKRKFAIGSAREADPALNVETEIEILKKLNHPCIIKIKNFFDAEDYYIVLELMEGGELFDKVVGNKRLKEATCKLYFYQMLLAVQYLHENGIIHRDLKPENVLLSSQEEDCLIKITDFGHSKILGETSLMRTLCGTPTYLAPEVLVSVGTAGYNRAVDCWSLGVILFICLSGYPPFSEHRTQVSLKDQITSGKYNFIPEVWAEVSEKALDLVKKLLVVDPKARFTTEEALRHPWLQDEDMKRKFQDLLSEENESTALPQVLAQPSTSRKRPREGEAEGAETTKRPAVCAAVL
Protocol: as §1, §2, §3, §4, §5, §6, §7, §8, §9, §10, §11, §12

PRAK = molecular target: T4, PRAK (Homo sapiens, UniProt Q8IW41); assay: as above; format: biochemical; conditions: read-out: % Inhibition PRAK
T4 construct: purchased Perkin Elmer (ProfilerPro assay kit 1)
T4 sequence (Q8IW41 1-473): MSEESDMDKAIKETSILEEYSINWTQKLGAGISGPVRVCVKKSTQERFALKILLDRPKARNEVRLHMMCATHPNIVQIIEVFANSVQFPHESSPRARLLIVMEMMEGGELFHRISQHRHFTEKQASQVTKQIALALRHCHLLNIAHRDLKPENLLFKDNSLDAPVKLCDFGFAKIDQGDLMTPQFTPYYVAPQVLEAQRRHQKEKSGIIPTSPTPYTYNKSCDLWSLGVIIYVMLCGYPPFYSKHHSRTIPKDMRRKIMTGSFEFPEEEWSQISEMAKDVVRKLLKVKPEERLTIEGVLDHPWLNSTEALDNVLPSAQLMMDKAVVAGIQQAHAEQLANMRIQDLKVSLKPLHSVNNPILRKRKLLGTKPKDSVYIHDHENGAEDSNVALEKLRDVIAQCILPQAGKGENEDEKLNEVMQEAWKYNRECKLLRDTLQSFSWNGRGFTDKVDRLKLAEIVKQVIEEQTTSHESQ
Protocol: as §1, §2, §3, §4, §5
final concentration. […] The
as §6, §7, §8, §9, §10, §11, §12

AKT1 = molecular target: T5, AKT1 (Homo sapiens, UniProt P31749); assay: as above; format: biochemical; conditions: read-out: % Inhibition AKT1
T5 construct: purchased Perkin Elmer ProfilerPro assay kit 1
T5 sequence (P31749 whole entry): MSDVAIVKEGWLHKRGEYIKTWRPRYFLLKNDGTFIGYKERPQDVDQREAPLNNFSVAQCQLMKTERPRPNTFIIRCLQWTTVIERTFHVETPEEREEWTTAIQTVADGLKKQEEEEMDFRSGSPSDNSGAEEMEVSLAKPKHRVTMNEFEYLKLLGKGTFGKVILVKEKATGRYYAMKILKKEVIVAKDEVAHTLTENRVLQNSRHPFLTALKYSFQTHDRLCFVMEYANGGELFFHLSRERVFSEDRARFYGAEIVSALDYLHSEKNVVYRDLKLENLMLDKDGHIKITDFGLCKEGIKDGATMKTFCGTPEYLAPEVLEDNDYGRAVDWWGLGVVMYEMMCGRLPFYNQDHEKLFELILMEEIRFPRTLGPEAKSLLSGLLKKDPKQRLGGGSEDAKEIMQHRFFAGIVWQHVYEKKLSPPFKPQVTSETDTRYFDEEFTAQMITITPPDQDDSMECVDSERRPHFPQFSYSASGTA
Protocol: Mobility Shift Assay Protocol
as §13, §1, §2, §3, §4, §5, §6, §7, §8, §9, §10, §11, §12

MAPKAPK2 = molecular target: T6, MAPKAPK2 (Homo sapiens, UniProt P49137); assay: as above; format: biochemical; conditions: read-out: % Inhibition MAPKAPK2
T6 construct: purchased Perkin Elmer (ProfilerPro assay kit 1)
T6 sequence (P49137 whole entry): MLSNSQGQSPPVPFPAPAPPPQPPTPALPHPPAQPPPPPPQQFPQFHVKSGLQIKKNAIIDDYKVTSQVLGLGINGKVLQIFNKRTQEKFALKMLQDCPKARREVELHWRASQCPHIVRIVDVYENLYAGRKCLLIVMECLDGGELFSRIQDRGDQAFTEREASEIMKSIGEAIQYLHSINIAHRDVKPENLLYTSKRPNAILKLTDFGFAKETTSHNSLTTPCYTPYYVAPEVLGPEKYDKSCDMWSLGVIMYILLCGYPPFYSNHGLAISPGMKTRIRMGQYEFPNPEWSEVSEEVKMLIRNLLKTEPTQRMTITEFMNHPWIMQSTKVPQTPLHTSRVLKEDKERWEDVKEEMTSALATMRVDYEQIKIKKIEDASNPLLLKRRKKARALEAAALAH
Protocol: as §1, §2, §3, §4, §5, §6, §7, §8, §9, §10, §11, §12

MPS1 [2] = molecular target: T2, MPS1; assay: biochemical; conditions: compound at 30 µM; read-out: % Inhibition MPS1
Protocol: (§24) In order to test the biochemical activity of our fragment library, a panel of 26 structurally diverse protein kinases was used.
as §13, §1, §2, §3, §4, §5, §6, §7, §8, §9, §10, §11, §12

SRC = molecular target: T7, SRC (Homo sapiens, UniProt P12931); assay: 26-kinase panel mobility shift assay, single concentration; format: biochemical; conditions: read-out: % Inhibition SRC
T7 construct: purchased Perkin Elmer (ProfilerPro assay kit 1)
Protocol: as §24, §13, §1, §2, §3, §4, §5, §6, §7, §8, §9, §10, §11, §12

Erk2 = molecular target: T8, Erk2 (Homo sapiens, UniProt P28482); assay: as above; format: biochemical; conditions: read-out: % Inhibition Erk2
T8 construct: purchased Perkin Elmer (ProfilerPro assay kit 1)
T8 sequence (P28482 whole entry): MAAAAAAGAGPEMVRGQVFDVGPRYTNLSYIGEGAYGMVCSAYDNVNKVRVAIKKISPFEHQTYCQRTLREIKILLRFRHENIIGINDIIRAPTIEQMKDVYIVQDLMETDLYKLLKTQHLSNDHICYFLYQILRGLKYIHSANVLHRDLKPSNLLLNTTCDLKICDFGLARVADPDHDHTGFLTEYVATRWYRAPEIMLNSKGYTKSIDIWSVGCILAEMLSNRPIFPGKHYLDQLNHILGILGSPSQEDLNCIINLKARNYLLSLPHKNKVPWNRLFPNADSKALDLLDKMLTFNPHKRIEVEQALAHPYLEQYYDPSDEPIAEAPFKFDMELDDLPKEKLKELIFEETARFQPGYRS
Protocol: as §1, §2, §3, §4, §5, §6, §7, §8, §9, §10, §11, §12

LYN = molecular target: T9, LYN (Homo sapiens, UniProt P07948); assay: as above; format: biochemical; conditions: read-out: % Inhibition LYN
T9 construct: purchased Perkin Elmer (ProfilerPro assay kit 1)
T9 sequence (P07948 whole entry): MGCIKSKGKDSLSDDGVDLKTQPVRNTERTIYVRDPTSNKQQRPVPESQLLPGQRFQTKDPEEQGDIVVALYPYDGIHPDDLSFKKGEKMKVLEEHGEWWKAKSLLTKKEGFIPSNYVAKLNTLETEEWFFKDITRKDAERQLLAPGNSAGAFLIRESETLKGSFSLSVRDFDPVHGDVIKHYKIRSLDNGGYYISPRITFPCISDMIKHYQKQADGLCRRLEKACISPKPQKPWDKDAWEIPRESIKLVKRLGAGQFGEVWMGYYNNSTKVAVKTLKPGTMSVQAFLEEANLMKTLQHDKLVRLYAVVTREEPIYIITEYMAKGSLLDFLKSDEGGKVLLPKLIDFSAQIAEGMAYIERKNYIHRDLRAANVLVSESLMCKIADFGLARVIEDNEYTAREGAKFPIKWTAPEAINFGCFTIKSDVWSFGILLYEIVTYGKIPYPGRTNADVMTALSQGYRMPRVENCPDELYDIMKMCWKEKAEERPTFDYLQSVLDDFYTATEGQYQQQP
Protocol: as §1, §2, §3, §4, §5, §6, §7, §8, §9, §10, §11, §12

MET = molecular target: T10, MET (Homo sapiens, UniProt P08581); assay: as above; format: biochemical; conditions: read-out: % Inhibition MET
T10 construct: purchased Perkin Elmer (ProfilerPro assay kit 1)
T10 sequence (P08581 25-1390): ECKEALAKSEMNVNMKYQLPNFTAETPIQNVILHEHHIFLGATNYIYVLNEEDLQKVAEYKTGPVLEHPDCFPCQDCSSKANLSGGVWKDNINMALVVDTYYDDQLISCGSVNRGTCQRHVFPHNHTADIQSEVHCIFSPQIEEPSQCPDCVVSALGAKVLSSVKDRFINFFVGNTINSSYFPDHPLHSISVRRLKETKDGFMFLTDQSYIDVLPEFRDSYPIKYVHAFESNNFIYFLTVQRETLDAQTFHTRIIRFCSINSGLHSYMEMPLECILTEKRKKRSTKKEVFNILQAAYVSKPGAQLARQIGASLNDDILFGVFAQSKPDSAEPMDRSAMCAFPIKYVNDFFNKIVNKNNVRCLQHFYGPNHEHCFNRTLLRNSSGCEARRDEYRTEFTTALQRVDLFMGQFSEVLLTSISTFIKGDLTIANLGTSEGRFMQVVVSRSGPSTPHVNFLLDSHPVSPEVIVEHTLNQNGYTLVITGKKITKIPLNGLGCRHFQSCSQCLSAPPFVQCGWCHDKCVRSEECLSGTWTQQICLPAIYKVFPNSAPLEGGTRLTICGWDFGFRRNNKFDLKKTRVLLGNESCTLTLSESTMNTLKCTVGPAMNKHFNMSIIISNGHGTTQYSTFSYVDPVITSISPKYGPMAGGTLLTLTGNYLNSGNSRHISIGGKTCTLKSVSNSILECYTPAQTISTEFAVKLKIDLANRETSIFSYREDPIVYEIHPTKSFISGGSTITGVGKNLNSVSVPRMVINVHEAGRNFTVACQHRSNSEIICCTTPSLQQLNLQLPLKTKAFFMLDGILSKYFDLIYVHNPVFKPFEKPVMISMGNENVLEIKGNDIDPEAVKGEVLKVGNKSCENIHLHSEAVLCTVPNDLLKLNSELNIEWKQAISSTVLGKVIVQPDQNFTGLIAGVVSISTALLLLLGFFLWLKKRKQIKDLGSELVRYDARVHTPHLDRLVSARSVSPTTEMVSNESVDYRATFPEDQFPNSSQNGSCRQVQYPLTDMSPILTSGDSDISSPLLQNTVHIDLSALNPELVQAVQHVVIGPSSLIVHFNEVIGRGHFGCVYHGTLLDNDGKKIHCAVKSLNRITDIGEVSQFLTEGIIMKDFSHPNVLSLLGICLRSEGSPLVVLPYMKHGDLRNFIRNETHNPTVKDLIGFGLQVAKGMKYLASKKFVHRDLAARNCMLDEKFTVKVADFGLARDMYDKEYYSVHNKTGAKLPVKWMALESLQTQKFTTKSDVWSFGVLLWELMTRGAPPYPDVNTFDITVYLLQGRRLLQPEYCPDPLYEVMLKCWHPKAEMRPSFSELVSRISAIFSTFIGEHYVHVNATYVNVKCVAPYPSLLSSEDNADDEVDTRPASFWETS
Protocol: as §24
Mobility Shift Assay Protocol
as §13, §1, §2, §3, §4, §5
final concentration. […] The
as §6, §7, §8, §9, §10, §11, §12

MSK1 = molecular target: T11, MSK1 (Homo sapiens, UniProt O75582); assay: as above; format: biochemical; conditions: read-out: % Inhibition MSK1
T11 construct: purchased Perkin Elmer (ProfilerPro assay kit 1)
T11 sequence (O75582 whole entry): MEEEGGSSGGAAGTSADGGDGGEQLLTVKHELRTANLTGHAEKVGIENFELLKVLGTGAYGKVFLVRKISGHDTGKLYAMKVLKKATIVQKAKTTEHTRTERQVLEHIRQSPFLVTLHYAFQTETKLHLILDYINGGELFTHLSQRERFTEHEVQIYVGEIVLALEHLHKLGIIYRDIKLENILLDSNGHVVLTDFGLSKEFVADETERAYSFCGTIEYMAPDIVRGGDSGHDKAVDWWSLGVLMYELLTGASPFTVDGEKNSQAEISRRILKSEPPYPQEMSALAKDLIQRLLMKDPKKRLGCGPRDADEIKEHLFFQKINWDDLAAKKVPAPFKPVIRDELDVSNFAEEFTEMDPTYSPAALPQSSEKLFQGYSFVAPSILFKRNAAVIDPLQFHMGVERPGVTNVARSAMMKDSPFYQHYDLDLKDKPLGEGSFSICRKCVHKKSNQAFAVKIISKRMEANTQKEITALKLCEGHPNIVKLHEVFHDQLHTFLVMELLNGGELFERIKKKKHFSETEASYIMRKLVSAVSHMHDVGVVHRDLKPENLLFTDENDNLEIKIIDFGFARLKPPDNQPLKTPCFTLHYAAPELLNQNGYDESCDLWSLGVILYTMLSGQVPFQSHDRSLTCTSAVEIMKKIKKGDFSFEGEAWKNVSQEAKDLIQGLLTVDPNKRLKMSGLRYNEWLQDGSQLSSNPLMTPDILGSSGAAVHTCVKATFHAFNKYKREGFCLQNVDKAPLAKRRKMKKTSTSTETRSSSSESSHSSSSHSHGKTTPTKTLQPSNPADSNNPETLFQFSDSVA
Protocol: as §24
Mobility Shift Assay Protocol
as §13, §1, §2, §3, §4, §5
final concentration. […] The
as §6, §7, §8, §9, §10, §11, §12

Aurora A = molecular target: T12, Aurora A (Homo sapiens, UniProt O14965); format: biochemical
T12 sequence (O14965 1-403): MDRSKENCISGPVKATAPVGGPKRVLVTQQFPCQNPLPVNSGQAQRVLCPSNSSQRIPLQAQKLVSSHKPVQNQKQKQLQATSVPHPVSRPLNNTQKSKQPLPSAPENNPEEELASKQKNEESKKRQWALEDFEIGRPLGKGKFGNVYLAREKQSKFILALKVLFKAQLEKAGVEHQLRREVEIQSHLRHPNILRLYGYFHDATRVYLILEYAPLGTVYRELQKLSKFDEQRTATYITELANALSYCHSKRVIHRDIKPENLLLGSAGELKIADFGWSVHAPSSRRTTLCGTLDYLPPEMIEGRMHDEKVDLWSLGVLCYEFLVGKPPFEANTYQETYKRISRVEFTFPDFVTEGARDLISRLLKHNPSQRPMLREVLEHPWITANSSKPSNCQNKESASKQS
Protocol: as §14, §15, §16, §17, §18, §19, §20, §21, §22, §23

AurA = molecular target: T13, AurA (Homo sapiens, UniProt O14965); assay: 26-kinase panel mobility shift assay, single concentration; format: biochemical; conditions: read-out: % Inhibition AurA
T13 construct: purchased Perkin Elmer (ProfilerPro assay kit 1)
T13 sequence (O14965 1-403): T12 sequence (O14965 1-403)
Protocol: Mobility Shift Assay Protocol
as §13, §1, §2, §3, §4, §5, §6, §7, §8, §9, §10, §11, §12

RSK1 = molecular target: T14, RSK1 (Homo sapiens, UniProt Q15418); assay: as above; format: biochemical; conditions: read-out: % Inhibition RSK1
T14 construct: purchased Perkin Elmer (ProfilerPro assay kit 1)
Protocol: Mobility Shift Assay Protocol
as §13, §1, §2, §3, §4, §5, §6, §7, §8, §9, §10, §11, §12

T1 sequence (P27361 whole entry): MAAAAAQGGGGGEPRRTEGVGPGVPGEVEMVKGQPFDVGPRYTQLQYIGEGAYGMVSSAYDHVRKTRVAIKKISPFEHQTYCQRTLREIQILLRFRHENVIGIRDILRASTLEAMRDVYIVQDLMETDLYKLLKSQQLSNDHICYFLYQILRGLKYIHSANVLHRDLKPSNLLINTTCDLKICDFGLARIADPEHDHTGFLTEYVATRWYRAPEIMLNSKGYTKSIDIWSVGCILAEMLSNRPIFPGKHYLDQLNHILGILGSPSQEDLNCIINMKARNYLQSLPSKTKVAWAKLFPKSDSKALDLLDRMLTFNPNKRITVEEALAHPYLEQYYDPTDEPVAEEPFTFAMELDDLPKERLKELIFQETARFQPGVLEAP

O=C(Nc1cc(-c2ccnc(NC3CC3)n2)c[nH]c1=O)c1ccccc1 [Compound 24]
inhibition at 30 µM (Erk1): 33% | inhibition at 30 µM (AurB): 91% | Ki (MPS1 [1]; calculated from mean IC50 using the Cheng-Prusoff equation): 3.2 µM | MPS1 ligand efficiency (LE) (MPS1 [1]; from Ki): 0.29 | inhibition at 30 µM (CHK2): 71% | inhibition at 30 µM (PRAK): 71% | inhibition at 30 µM (AKT1): 73% | inhibition at 30 µM (MAPKAPK2): 96% | inhibition at 30 µM (MPS1 [2]): 76% | inhibition at 30 µM (SRC): 99% | inhibition at 30 µM (Erk2): 37% | inhibition at 30 µM (LYN): 86% | inhibition at 30 µM (MET): 65% | inhibition at 30 µM (MSK1): 83% | Ki (Aurora A; calculated from mean IC50 using the Cheng-Prusoff equation, read-out: AurA Ki): 17.3 µM | AurA ligand efficiency (LE) (Aurora A; from Ki): 0.25 | inhibition at 30 µM (AurA): 99% | inhibition at 30 µM (RSK1): 98%
